This is an account of results in ChEMBL document CHEMBL1132351, “Synthesis, in vitro pharmacology, and molecular modeling of very potent tacrine-huperzine A hybrids as acetylcholinesterase inhibitors of potential interest for the treatment of Alzheimer's disease” (J Med Chem, 1999).

Structures are written as SMILES. Values joined by “and” are separate entries in the source; they are usually repeats but may differ in a detail not shown here. Equal values may be shown once. Some results are limits rather than exact numbers.

Broadly, the IC50 is the concentration that inhibits the measured activity by half.

Sequence of Cholinesterase (P06276 whole entry): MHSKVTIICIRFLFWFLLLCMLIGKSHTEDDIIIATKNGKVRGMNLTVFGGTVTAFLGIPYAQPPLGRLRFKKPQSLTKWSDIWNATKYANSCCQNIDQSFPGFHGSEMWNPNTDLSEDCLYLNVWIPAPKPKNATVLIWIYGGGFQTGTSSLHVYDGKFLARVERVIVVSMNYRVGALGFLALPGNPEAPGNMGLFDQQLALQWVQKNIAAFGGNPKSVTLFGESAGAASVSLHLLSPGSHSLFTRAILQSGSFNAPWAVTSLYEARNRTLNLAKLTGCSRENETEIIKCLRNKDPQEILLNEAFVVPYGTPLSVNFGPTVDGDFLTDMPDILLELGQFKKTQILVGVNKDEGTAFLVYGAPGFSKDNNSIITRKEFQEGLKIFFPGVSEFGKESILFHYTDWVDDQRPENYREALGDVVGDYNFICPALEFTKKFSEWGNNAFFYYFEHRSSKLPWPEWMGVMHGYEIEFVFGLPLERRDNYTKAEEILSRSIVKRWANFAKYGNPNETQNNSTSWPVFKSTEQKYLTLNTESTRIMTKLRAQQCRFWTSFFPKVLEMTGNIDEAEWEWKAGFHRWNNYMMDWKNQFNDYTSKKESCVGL

One assay deals with T1, Acetylcholinesterase (Bos taurus, UniProt P23795).
T1 sequence (P23795 whole entry): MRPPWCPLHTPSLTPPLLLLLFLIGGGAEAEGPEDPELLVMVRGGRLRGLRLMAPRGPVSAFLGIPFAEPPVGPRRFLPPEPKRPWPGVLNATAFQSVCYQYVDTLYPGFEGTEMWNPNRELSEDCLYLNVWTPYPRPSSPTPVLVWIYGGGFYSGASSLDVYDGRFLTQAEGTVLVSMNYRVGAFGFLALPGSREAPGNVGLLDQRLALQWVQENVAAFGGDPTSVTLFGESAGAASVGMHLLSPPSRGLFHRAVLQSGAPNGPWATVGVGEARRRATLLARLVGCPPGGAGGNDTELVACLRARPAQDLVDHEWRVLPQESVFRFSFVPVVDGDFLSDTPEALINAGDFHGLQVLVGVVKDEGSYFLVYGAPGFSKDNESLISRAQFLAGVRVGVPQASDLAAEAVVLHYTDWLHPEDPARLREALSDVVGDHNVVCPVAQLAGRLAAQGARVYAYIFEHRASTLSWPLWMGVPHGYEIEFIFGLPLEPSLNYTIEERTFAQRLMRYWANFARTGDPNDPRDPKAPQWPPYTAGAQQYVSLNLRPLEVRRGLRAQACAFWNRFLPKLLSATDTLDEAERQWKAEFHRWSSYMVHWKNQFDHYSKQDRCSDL
Description: Inhibition of acetylcholinesterase (AChE)activity in bovine erythrocytes
`CCC1=CC2Cc3nc4ccccc4c(N)c3C(C1)C2` (single isomer, unassigned; (-)) gave an IC50 of 27.4 nM.
Turning to `CC(C)C1=CC2Cc3nc4ccccc4c(N)c3C(C1)C2` (racemic), inhibition was half-maximal at 103 nM (IC50).
In the case of `CCC1=CC2Cc3nc4ccccc4c(N)c3C(C1)C2` (racemic), the half-maximal inhibitory concentration (IC50) worked out at 38.5 nM. Compared with the last compound, the IC50 is about 2.7-fold lower.
`Nc1c2c(nc3ccccc13)CC1C=C(c3ccccc3)CC2C1` (racemic) yielded an IC50 of 126 nM.
The compound `CC1=CC2Cc3nc4ccccc4c(N)c3C(C1)C2` (single isomer, unassigned; (+)) yielded an IC50 of 329 nM.
`C=CCC1=CC2Cc3nc4ccccc4c(N)c3C(C1)C2` (racemic) registered a half-maximal inhibitory concentration (IC50) of 150 nM.
With `CC1=CC2Cc3nc4ccccc4c(N)c3C(C1)C2` (racemic), inhibition was half-maximal at 65 nM (IC50).
Compound `CCC1=CC2Cc3nc4cc(C)ccc4c(N)c3C(C1)C2` (racemic) gave an IC50 of 12 nM.
Compound `CCC1=CC2Cc3nc4cccc(C)c4c(N)c3C(C1)C2` (racemic) came in with a concentration for half-maximal inhibition (IC50) of 29.8 nM.
On the same count and under the same terms, then `CC1=C[C@@H]2Cc3nc4cc(F)ccc4c(N)c3[C@H](C1)C2` (racemic), with 8.5 nM; and `CC(C)(C)C1=CC2Cc3nc4ccccc4c(N)c3C(C1)C2` (racemic), with 267 nM.
`CCC1=CC2Cc3nc4ccccc4c(N)c3C(C1)C2` (single isomer, unassigned; (+)): half-maximal inhibition (IC50) was put at 888 nM. Compared with the last compound, the IC50 is about 3.3-fold higher.
For `CC1=CC2Cc3nc4cccc(F)c4c(N)c3C(C1)C2` (racemic), the concentration for half-maximal inhibition (IC50) came out at 31.4 nM.

Test system in another assay: not listed separately
Put plainly: Drug concentration that reaches 50% of antagonism index (AI); No reversion at 10 uM concentration. The format is functional.
Consider `CCC1=CC2Cc3nc4cc(C)ccc4c(N)c3C(C1)C2` (centres undefined) [listing 1 of 2 here], for which the AI50 entry is “No reversion”.

Test system in a further assay: not listed separately
Kind of assay: Drug concentration that reaches 50% of antagonism index (AI); No reversion at 10 uM concentration. The format is functional.
With `Nc1c2c(nc3ccccc13)CC1C=C(c3ccccc3)CC2C1` (racemic), the AI50 result is “No reversion”.
For `C=CCC1=CC2Cc3nc4ccccc4c(N)c3C(C1)C2` (racemic), the AI50 entry is “No reversion at 10 uM concentration”.

Another assay has as its target Cholinesterase (Homo sapiens, UniProt P06276).
Description: Inhibition of butyrylcholinesterase (BChE) activity in human serum
The compound `CCC1=CC2Cc3nc4ccccc4c(N)c3C(C1)C2` (single isomer, unassigned; (-)) came in with an IC50 of 63.3 nM.
As to `C/C=C1\[C@H]2C=C(C)C[C@]1(N)c1ccc(=O)[nH]c1C2` [HUPERZINE A], the half-inhibitory concentration (IC50) was > 100000 nM.
In the case of `CCC1=CC2Cc3nc4cc(C)ccc4c(N)c3C(C1)C2` (centres undefined) [listing 2 of 2 here], the half-maximal inhibitory concentration (IC50) was 115 nM and 347 nM.
Compound `CCC1=CC2Cc3nc4ccccc4c(N)c3C(C1)C2` (racemic) returned a half-inhibitory concentration (IC50) of 79.3 nM. This counts as double-digit nanomolar.
The same measure, in the same setting: in the case of `CC1=CC2Cc3nc4ccccc4c(N)c3C(C1)C2` (single isomer, unassigned; (+)) it was 316 nM.
The same measure, in the same setting: then `CC1=CC2Cc3nc4cc(C)ccc4c(N)c3C(C1)C2` (racemic), with 449 nM; and `CC1=CC2Cc3nc4ccccc4c(N)c3C(C1)C2` (racemic), with 126 nM.
`CC1=CC2Cc3nc4ccccc4c(N)c3C(C1)C2` (single isomer, unassigned; (-)): the IC50 was 89 nM.
On the same count and under the same terms, in the case of `CCC1=CC2Cc3nc4cc(C)ccc4c(N)c3C(C1)C2` (racemic) it was 208 nM.
On the same count and under the same terms, in the case of `CCC1=CC2Cc3nc4cccc(C)c4c(N)c3C(C1)C2` (racemic) it was 512 nM; in that of `CC1=C[C@@H]2Cc3nc4cc(F)ccc4c(N)c3[C@H](C1)C2` (racemic), 197 nM.
For `CCC1=CC2Cc3nc4ccccc4c(N)c3C(C1)C2` (single isomer, unassigned; (+)), the 50% inhibitory concentration (IC50) was found to be 109 nM.
The compound `CC1=CC2Cc3nc4cccc(F)c4c(N)c3C(C1)C2` (racemic) gave a half-inhibitory concentration (IC50) of 543 nM. This IC50 is about 5-fold higher than that of the compound before.
